Measurements as given in patent US20050003546A1, “Viral uptake into cells and tissues” (Yale University, priority 2001, published 2005).

What was measured:
COS-7 cells = test: Ad-GFP adenovirus infection of COS-7 cells (Western blot, fluorescence microscopy, flow cytometry); type: cell-based
Procedure: (§1) Adenoviruses (1 m.o.i. or approximately 1×10^6 pfu per 60 mm dish) were pre-complexed with the peptides (0.05 to 5 mM) in 100 μl of serum free media (OptiMEM; Gibco, Grand Island, N.Y.) for 30 min at room temperature. Cells (COS-7 or BAEC) were grown on 60 mm dishes until 90% confluent and media was changed to serum free (2 ml) before exposure to the adenovirus complex. The complex (100 μl) was added to the cells for 4 hrs and then the cells were washed and changed to complete growth media for 24 to 48 hours.
(§2) Western blotting was performed as described previously (16). Briefly, cells were lysed (50 mM Tris-HCl, 0.1 mM EDTA, 0.1 mM EGTA, 1% (v/v) Nonidet P-40, 0.1% SDS, 0.1% deoxycholic acid, 1 mM Pefabloc, 10 μg/ml aprotinin, and 10 μg/ml leupeptin) for 1 hr at 4° C. and the soluble material was separated on a 10% SDS-PAGE, and transferred to a nitrocellulose membrane. Blocked membranes were probed using the specific polyclonal anti-GFP (Clontech, Palo Alto, Calif.) or the monoclonal anti-hsp90(Stressgen, Victoria, Canada) antibodies. After washing and incubating with secondary antibodies, immunoreactive proteins were visualized by ECL detection system (Amersham, Buckinghamshire, UK).
(§3) Live cells infected with Ad-GFP were washed with serum free media and visualized using a Zeiss Axiovert 200 microscope under phase contrast or GFP filters (excitation 450 nm, emission 510 nm). Images were captured using the Openlab Imaging software (Improvision, Lexington, Mass.). Flow cytometric analysis of GFP expressing cells was performed 48 h after following infection. Cells were trypsinized, PBS washed and fixed in 70% ethanol at 4° C. Cells were resuspended in PBS and were analyzed by gating for GFP fluorescence by flow cytometry using a FACSort (Becton Dickinson, San Jose, Calif.).

[1] = tested on: vascular permeability in mouse ear; test: Permeability assay: Evans blue leakage in mouse ear after intradermal Ad-VEGF; type: in vivo
Procedure: Ad-VEGF (5.5×10^7 pfu) or Ad-β-gal (2.5×10^7 pfu) with or without AP complex (10 μM; 30 minutes at room temperature) was injected intradermally into the ear of CD1 mouse. Evans blue leakage was monitored 4 days after infection as described previously (9).

[2] = tested on: blood vessels of the lower limbs (PECAM/CD31 positive area); test: Ischemic hind limb angiogenesis assay with intramuscular Ad-VEGF; type: in vivo, mouse; conditions: intramuscular Ad-VEGF 5.5×10^7 pfu in presence of AP, hind limb ischemia
Procedure: (§4) Ischemic hind limb model was performed as described previously (19). Briefly, following anesthesia, the left femoral artery was exposed under a dissection microscope. The proximal end of the femoral artery and the distal portion of the saphenous artery were ligated. All branches between these two sites were cauterized, and arteriectomy was performed. Following arteriectomy, 25 μl of either virus storage buffer, Ad-VEGF (5.5×10^7 pfu), Ad- -ga l (2.5×10^7 pfu), pre-complexed with AP (30 min room temperature; 10 μM) or AP alone (at least 5 animals per group) was injected into the adductor muscle at 3 different sites. Mice were sacrificed 21 days following surgery and muscles of the lower limbs were harvested, methanol fixed and paraffm embedded. Tissue sections (5 μm thick) were stained using an anti-CD31 antibody (Pharmingen, San Diego, Calif.), and hematoxylin counter stained. Pictures from 4 random areas of each section, and 3 sections per mice were taken using a Kodak digital camera mounted on a light microscope (40× objective). Capillary density was quantified by measuring the percentage of CD31 positive area out of total area using the Matlab software (The Math Works, Inc.).

adductor muscle = test: Intramuscular Ad-β-gal reporter virus injection into mouse adductor muscle; type: in vivo; conditions: Ad-β-gal 5×10^7 pfU in 25 μl, three sites, pre-complexed with AP 10 μM
Procedure: (§5) -galactosidase expression was monitored by either X-Gal staining or activity 4 days after virus administration as described previously (14,18).
as §4

[3] = tested on: bovine aortic endothelial cells (BAEC); test: Nitric oxide release from BAEC infected with Ad-eNOS or Ad-GFP; type: cell-based
Procedure: as §1
Basal NO2^− release from BAEC, a stable metabolite of NO, was assessed in the medium as described (9). In all experiments, release was attenuated by a NOS inhibitor.

[4] = tested on: bovine aortic endothelial cells (BAEC); test: Ad-GFP adenovirus infection of bovine aortic endothelial cells (Western blot); type: cell-based; conditions: AP/Ad-GFP complex
Procedure: as §1, §2

[5] = tested on: mouse carotid artery endothelium; test: Endothelium specific gene transfer of mouse carotid arteries ex vivo (Ad-GFP, Ad-β-gal)
Procedure: (§6) The common carotid artery was cannulated, flushed with a small amount (˜3 μl) of virus and tied off proximally. Approximately 3 μl of Ad-β-gal (1×10^9 pfu/ml), Ad-GFP (1×10^9 pfu/ml), Ad-eNOS (5×10^10 pfu/ml) virus or virus complexed with AP (10 μM) for 30 min at room temperature was injected. The virus-filled vessel was incubated in situ at 37° C. for 2 hours and then rinsed in saline prior to overnight (18 hours) incubation in complete DMEM at 37° C., 5% CO2. Control vessels were filled with viral storage buffer and treated in an identical manner.
as §5

[6] = tested on: human umbilical vascular endothelial cells (HUVEC); test: Ret-GFP retrovirus infection of HUVEC (Western blot, fluorescence microscopy); type: cell-based
Procedure: For retroviral infections supernatant from phoenix retroviral packaging cell line expressing […] was incubated for 30 min at 37 C in presence of AP (0.1-0.5 mM). HUVEC cells were exposed to the mixture for 24 hrs and then harvested.
as §2
as §3, with “Flow cytometric analysis of GFP expressing cells was performed 48 h after following infection. Cells were trypsinized, PBS washed and fixed in 70% ethanol at 4° C.” left out

[7] = tested on: carotid arteries from eNOS -/- mice; test: Isometric studies: acetylcholine-induced relaxation of eNOS -/- carotid arteries transduced with Ad-eNOS; set-up: species or system mouse; conditions: carotid arteries of eNOS (-/-) mice luminally transduced with Ad-eNOS, without or pre-complexed with AP
Procedure: as §6
Rings of carotid artery were studied as described previously (17). To assess endothelial function, vessels were precontracted with a submaximal (˜80%) concentration of PGF2α (5×10^−6 mol/L) prior to application of endothelium-dependent dilator acetylcholine (10^−10−3×10^−6 mol/L).

Row | Sequence | increasing Ad-GFP infection (GFP western blot), compared with AP (COS-7 cells; Tat peptide 0.1 and 0.5 mM, COS-7) | increase of basal vascular permeability over Ad-VEGF alone ([1]; AP complexed with Ad-VEGF, mouse ear) [fold] | ability of VEGF to promote vascular leak (extravasation of Evans blue) ([1]; Ad-VEGF 5.5×10^7 pfu with AP, intradermal, 4 days) | PECAM positive vessels compared to Ad-VEGF alone [2] [fold] | staining for β-galactosidase activity in adductor muscle (adductor muscle) | expression of GFP (western blotting) (COS-7 cells; AP 0.05 to 5.0 mM pre-incubated 30 min with Ad-GFP 1 m.o.i., diluted 20 fold into medium, COS-7) | increase in cells strongly positive for GFP (M2), flow cytometry (COS-7 cells; Ad-GFP 1 m.o.i. pre-complexed with AP vs Ad-GFP alone, COS-7) [fold] | numbers of GFP positive cells (fluorescent microscopy) compared to virus alone (COS-7 cells; Ad-GFP pre-incubated with 0.5 mM AP, COS-7) | GFP expression when cells exposed to AP prior to or after Ad-GFP infection (no pre-complex step) (COS-7 cells; COS-7, Ad-GFP) | Ad-eNOS mediated NO release from cultured endothelial cells ([3]; 1 m.o.i. of eNOS virus in absence or presence of AP) | NO release with control virus Ad-GFP ([3]; Ad-GFP 1 m.o.i. in absence or presence of AP) | GFP expression levels (western blotting) compared to Ad-GFP alone [4] | infectivity of the Ad-GFP virus (en face fluorescence imaging) ([5]; Ad-GFP 10^9 pfu/ml pre-complexed with AP 10 μM, luminal, ex vivo) | X-Gal staining in the endothelial cell layer (tissue cross section) ([5]; Ad-β-gal 10^9 pfu/ml, AP pre-treatment, ex vivo) | β-galactosidase activity increase over Ad-β-gal infection alone ([5]; carotid arteries treated with AP/Ad-β-gal complex) | GFP expression (western blot) ([6]; AP 0.05-0.5 mM added to Ret-GFP viral supernatant (approximately 10^6-10^7 pfu/ml)) | GFP positive cells (fluorescence microscopy) ([6]; AP/Ret-GFP complex) | endothelium dependent dilation in response to acetylcholine (Ach) [7]
1 | GRKKRRQRRRPPQ (Human immunodeficiency virus) [Tat peptide, synthetic peptide, HIV Tat amino acids 48-60] | as efficient as AP | – | – | – | – | – | – | – | – | – | – | – | – | – | – | – | – | –
2 | RQIKIWFQNRRMKWKK [AP] | – | 2.5 | significantly enhanced | > 4 | increased | dose-dependently improved | ~10 | increased numbers | did not yield an increase | improves | does not influence | marked increase | markedly improved | increased staining | two | dose-dependently enhanced | substantial increase | improved
